Assays:
[1] = target: T1, Carbonic anhydrase (Stylophora pistillata, UniProt C0IX24)
T1 sequence (C0IX24 whole entry): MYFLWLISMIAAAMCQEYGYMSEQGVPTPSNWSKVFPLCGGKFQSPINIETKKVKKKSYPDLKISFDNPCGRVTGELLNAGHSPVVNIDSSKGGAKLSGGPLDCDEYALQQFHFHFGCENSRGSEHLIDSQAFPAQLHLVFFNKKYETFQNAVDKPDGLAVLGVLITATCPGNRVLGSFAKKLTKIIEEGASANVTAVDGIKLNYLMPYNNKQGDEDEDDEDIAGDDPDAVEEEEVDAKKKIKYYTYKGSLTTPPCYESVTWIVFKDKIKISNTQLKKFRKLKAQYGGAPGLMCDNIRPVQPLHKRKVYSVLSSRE

[2] = target: T2, Alpha carbonic anhydrase (Stylophora pistillata, UniProt B5SU02)
T2 sequence (B5SU02 whole entry): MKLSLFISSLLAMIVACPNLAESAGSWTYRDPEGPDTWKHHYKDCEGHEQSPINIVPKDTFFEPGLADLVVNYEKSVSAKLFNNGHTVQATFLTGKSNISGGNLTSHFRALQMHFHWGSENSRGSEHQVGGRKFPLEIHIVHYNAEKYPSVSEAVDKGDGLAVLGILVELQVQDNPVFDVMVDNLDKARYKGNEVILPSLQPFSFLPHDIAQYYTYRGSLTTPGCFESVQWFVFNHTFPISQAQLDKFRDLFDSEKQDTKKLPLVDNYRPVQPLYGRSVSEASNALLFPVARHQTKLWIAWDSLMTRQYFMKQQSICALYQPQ

[3] = target: Carbonic anhydrase 6 (Homo sapiens, UniProt P23280)
Sequence of Carbonic anhydrase 6 (P23280 whole entry): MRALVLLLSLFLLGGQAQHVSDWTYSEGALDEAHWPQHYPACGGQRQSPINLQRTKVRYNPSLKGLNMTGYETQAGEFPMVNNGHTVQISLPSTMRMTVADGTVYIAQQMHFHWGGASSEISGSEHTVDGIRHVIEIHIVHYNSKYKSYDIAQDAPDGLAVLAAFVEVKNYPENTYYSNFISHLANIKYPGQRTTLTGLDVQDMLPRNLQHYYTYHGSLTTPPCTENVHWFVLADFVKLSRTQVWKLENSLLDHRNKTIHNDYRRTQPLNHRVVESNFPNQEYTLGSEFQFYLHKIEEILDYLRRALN

[4] = target: Carbonic anhydrase 1 (Homo sapiens, UniProt P00915)
Sequence of Carbonic anhydrase 1 (P00915 whole entry): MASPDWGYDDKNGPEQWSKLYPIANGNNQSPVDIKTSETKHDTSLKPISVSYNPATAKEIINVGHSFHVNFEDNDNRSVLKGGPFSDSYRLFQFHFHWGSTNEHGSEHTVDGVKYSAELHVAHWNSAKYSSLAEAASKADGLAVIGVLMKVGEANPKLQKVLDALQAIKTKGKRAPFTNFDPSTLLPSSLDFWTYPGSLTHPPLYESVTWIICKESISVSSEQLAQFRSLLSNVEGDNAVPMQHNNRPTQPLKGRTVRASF

Question: How did the Ki [1] turn out when `NNc1ccccc1S(N)(=O)=O` was run?
Answer: Its Ki is 0.65 µM.

Question: `Nc1ccc(S(N)(=O)=O)cc1I` was tested. Which Ki [1] did it give?
Answer: The Ki was 0.695 µM.

Question: For `Nc1ccc(S(N)(=O)=O)cc1Br`, which Ki [1] is on record?
Answer: Its Ki is 0.54 µM.

Question: For `NCCc1ccc(S(N)(=O)=O)cc1`, which Ki [1] is on record?
Answer: Its Ki is 0.577 µM.

Question: `Nc1ccc(S(=O)(=O)NCCc2ccc(S(N)(=O)=O)cc2)cc1` was tested. Which Ki [1] did it give?
Answer: Its Ki is 0.902 µM.

Question: For `NS(=O)(=O)c1ccc(S(=O)(=O)Nc2cccc3c(Cl)c[nH]c23)cc1`, which Ki [1] is on record?
Answer: The Ki was 0.394 µM.

Question: How did the Ki [1] turn out when `NS(=O)(=O)c1nnc(NS(=O)(=O)c2ccccc2)s1` [BENZOLAMIDE] was run?
Answer: The Ki was 0.214 µM.

Question: Which Ki [1] does the source give for `CCN[C@H]1CN(CCCOC)S(=O)(=O)c2sc(S(N)(=O)=O)cc21` [BRINZOLAMIDE] here?
Answer: The Ki was 0.169 µM.

Question: For `Br` [BROMIDE], which Ki [2] is on record?
Answer: The Ki was 9.7 µM.

Question: What about the Ki [3] of the same molecule?
Answer: Its Ki is 730 µM.

Question: And the Ki [1]?
Answer: Its Ki is 960 µM.

Question: Which Ki [1] does the source give for `Cc1ccc(-c2cc(C(F)(F)F)nn2-c2ccc(S(N)(=O)=O)cc2)cc1` [CELECOXIB] here?
Answer: Its Ki is 0.69 µM.

Question: How did the Ki [2] turn out when `N#CO` [CYANATE] was run?
Answer: The Ki was 590 µM.

Question: And the Ki [3]?
Answer: The Ki was 690 µM.

Question: And the Ki [1]?
Answer: Its Ki is 690 µM.

Question: For `F` [FLUORIDE ION], which Ki [2] is on record?
Answer: Its Ki is 620 µM.

Question: What about the Ki [3] of the same molecule?
Answer: The Ki was 600 µM.

Question: And the Ki [1]?
Answer: Its Ki is 920 µM.

Question: Which results are given for `Cl` [HYDROCHLORIC ACID]?
Answer: Ki [2]: 500 µM; Ki [3]: 720 µM; Ki [1]: 530 µM

Question: For `I` [IODIDE], which Ki [2] is on record?
Answer: The Ki was 9 µM.

Question: What about the Ki [3] of the same molecule?
Answer: Its Ki is 810 µM.

Question: What about the Ki [1] of the same molecule?
Answer: The Ki was 33000 µM.

Question: `NCc1ccc(S(N)(=O)=O)cc1` [MAFENIDE] was tested. Which Ki [1] did it give?
Answer: The Ki was 0.508 µM.

Question: With `O=[N+]([O-])O` [NITRIC ACID] as the molecule, how does the Ki [2] read?
Answer: Its Ki is 560 µM.

Question: And the Ki [3]?
Answer: The Ki was 760 µM.

Question: What about the Ki [1] of the same molecule?
Answer: Its Ki is 990 µM.

Question: What does the source list for `O=NO` [NITROUS ACID]?
Answer: Ki [2]: 770 µM; Ki [3]: 820 µM; Ki [1]: 3150 µM

Question: For `Cc1ccc(S(N)(=O)=O)cc1` [P-TOLUENESULFONAMIDE], which Ki [1] is on record?
Answer: The Ki was 0.516 µM.

Question: Which results are given for `OB(O)c1ccccc1` [PHENYLBORONIC ACID]?
Answer: Ki [4]: 58.6 nM; Ki [2]: 0.00068 µM; Ki [3]: 0.00082 µM; Ki [1]: 8.1e-06 µM

Question: With `O=C1NS(=O)(=O)c2ccccc21` [SACCHARIN] as the molecule, how does the Ki [3] read?
Answer: Its Ki is 0.935 µM.

Question: And the Ki [1]?
Answer: The Ki was 0.104 µM.

Question: How did the Ki [4] turn out when `NS(=O)(=O)O` [SULFAMATE] was run?
Answer: The Ki was 0.021 nM.

Question: And the Ki [2]?
Answer: The Ki was 0.00081 µM.

Question: And the Ki [1]?
Answer: Its Ki is 8.5e-06 µM.

Question: For `NS(N)(=O)=O` [SULFAMIDE], which Ki [1] is on record?
Answer: The Ki was 5.7e-06 µM.

Question: With `O=S(O)O` [SULFUROUS ACID] as the molecule, how does the Ki [2] read?
Answer: The Ki was 410 µM.

Question: And the Ki [3]?
Answer: The Ki was 14200 µM.

Question: What about the Ki [1] of the same molecule?
Answer: Its Ki is 430 µM.

Question: With `S1SSSSSSS1` [SULFUR] as the molecule, how does the Ki [4] read?
Answer: Its Ki is 600 nM.

Question: And the Ki [2]?
Answer: The Ki was 580 µM.

Question: What about the Ki [3] of the same molecule?
Answer: Its Ki is 710 µM.

Question: And the Ki [1]?
Answer: The Ki was 3940 µM.

From ChEMBL document CHEMBL1641500, “Carbonic anhydrase inhibitors. Inhibition studies with anions and sulfonamides of a new cytosolic enzyme from the scleractinian coral Stylophora pistillata” (Bioorg Med Chem Lett, 2011)
